Assays:
Test in all cases: relative viability (nuclei count vs DMSO), 5 days (fraction); higher = more cells survive
[1] = compound: C[C@@]1(C(=O)Nc2ccc(F)nc2)CCCN1c1nc(Nc2cc(C3CC3)n[nH]2)c2cccn2n1 + CCNC(=O)c1noc(-c2cc(C(C)C)c(O)cc2O)c1-c1ccc(CN2CCOCC2)cc1 [Luminespib] (partner 0.01 µM)
In short: (§1)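 Lung cancer cell lines in 1536-well plates got either a single drug or a fixed anchor-drug dose together with five library-drug doses (not always all listed) in √10 steps, by pin tool, on the day after seeding. Nuclei were counted after 5 days, and relative viability is the treated-to-vehicle ratio of nuclei counts. Values are medians of duplicate plates.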

[2] = compound: CC1(C)CNc2cc(NC(=O)c3cccnc3NCc3ccncc3)ccc21 [Motesanib] + N=C(N)NC(=N)NCCc1ccccc1 [Phenformin] (partner 250 µM)
In short: as §1

[3] = compound: CC1(C)CNc2cc(NC(=O)c3cccnc3NCc3ccncc3)ccc21 [Motesanib] + COc1cccc2cc(-c3nc([C@H]4CC[C@H](C(=O)O)CC4)n4ncnc(N)c34)[nH]c12 [OSI-027] (partner 0.5 µM)
In short: as §1

[4] = compound: CC1(C)CNc2cc(NC(=O)c3cccnc3NCc3ccncc3)ccc21 [Motesanib] + C[C@]1(O)C[C@@H](c2nc(-c3ccc4ccc(-c5ccccc5)nc4c3)c3c(N)nccn32)C1 [Linsitinib] (partner 1 µM)
In short: as §1

Cell Line	relative viability ([1]; first compound 0.04 µM)	relative viability ([1]; first compound 0.1265 µM)	relative viability ([1]; first compound 0.4 µM)	relative viability ([1]; first compound 1.265 µM)	relative viability ([2]; first compound 0.01 µM)	relative viability ([2]; first compound 0.03162 µM)	relative viability ([2]; first compound 0.1 µM)	relative viability ([2]; first compound 0.3162 µM)	relative viability ([2]; first compound 1 µM)	relative viability ([3]; first compound 0.01 µM)	relative viability ([3]; first compound 0.03162 µM)	relative viability ([3]; first compound 0.1 µM)	relative viability ([3]; first compound 0.3162 µM)	relative viability ([3]; first compound 1 µM)	relative viability ([4]; first compound 0.01 µM)	relative viability ([4]; first compound 0.03162 µM)	relative viability ([4]; first compound 0.1 µM)	relative viability ([4]; first compound 0.3162 µM)	relative viability ([4]; first compound 1 µM)
HCC-44	0.829	0.744	0.623	0.732	0.129	0.174	0.252	0.309	0.209	0.552	0.431	0.633	0.633	0.544	0.7	0.653	0.694	0.696	0.6
HCC-827	0.747	0.388	0.529	1	0.449	0.475	0.405	0.448	0.451	0.669	0.809	0.749	0.761	0.755	0.983	0.916	1	1.05	0.951
NCI-H1623	0.47	0.368	0.345	0.403	0.551	0.613	0.594	0.617	0.578	0.454	0.475	0.475	0.389	0.409					
NCI-H2347	0.706	0.448	0.206	0.288	0.419	0.45	0.372	0.502	0.466	0.411	0.364	0.357	0.51	0.493	0.985	1.01	1.06	1	1
PC-14	0.164		0.12	0.175	0.471	0.53	0.663	0.604	0.586	0.868	1.01	0.704	0.844	0.849	1.01	0.97	1.02	0.997	0.97
NCI-H1651	0.916	0.715	0.768	0.71	0.295	0.367	0.342	0.352	0.339	0.848	0.663	0.628	0.652	0.615	0.917	0.912	0.966	0.944	1.08
HARA	0.72	0.73	0.585	0.881	0.479	0.433	0.435	0.431	0.359	0.439	0.724	0.527	0.554	0.557	0.967	0.909	1.02	1.09	1.14
NCI-H1650	0.215	0.194	0.199	0.181	0.489	0.304	0.394	0.417	0.403	0.747	0.688	0.725	0.562	0.586					
NCI-H1395	0.768	0.717	0.583	0.889	0.437	0.431	0.406	0.543	0.433	0.576	0.579	0.658	0.636	0.564	0.992	1.03	1	1.11	1.35
